Data set [1] can be described thus: Post-preparative stability of extracted samples. It is filed as physicochemical. The conditions noted are these: for Mean recovery: n = 8, ± SD. As to the method: (§1) Freeze-thawed, post-preparative and long-term stability assay samples were prepared and evaluated similar to the short-term stability samples. However, the freeze thawing assay was assessed after undergoing three freeze-thaw cycles (one freeze-thaw cycle per day on three consecutive days) and post-preparative assay, maintaining the extracted samples for 24 hours in the Sample Manager (20°C, transparent vials). The long-term stability of human plasma stored at -40°C was assessed at the end of the study (60 days).

Data set [2] can be described thus: Stability of stock solutions and working standard solutions. The data set is classed as physicochemical. Particulars: for Mean recovery: n = 8, ± SD. The protocol: The stability of the stock solutions (1 mg/mL of each analyte and ISs) was evaluated after 30 days of storage in a refrigerator (4°C, amber bottles). The stored solutions were diluted with acetonitrile/water (70:30 v/v) to obtain the same concentration levels as the short-term stability assay. The stability of the stock solutions was evaluated by comparing the mean recovery of the analytes and IS obtained from stored samples to the mean values obtained with freshly prepared samples, at the same concentration levels. The stability of the working standard solutions was assessed using a procedure similar to that described for stock solution stability. […]

Data set [3] is described as follows: Stability in human plasma: short-term, freeze-thaw and long-term. It is filed as in vitro ADME. Particulars: for Mean recovery: n = 8, ± SD. The protocol: The samples were vortexed for 2 min and then were kept at room temperature for 8 h. Afterward, the samples were spiked with 50 μL of IS solution and were vortexed (2 min) and submitted to the extraction procedures. The short-term stability was evaluated by comparing the mean recovery of the analytes and the IS obtained from stored samples with the mean values obtained with freshly prepared samples, at same concentration levels.
as §1

Data set [4] concerns carrageenan-induced paw edema. On the set-up: method as in PMID 21211951. The conditions noted are these: mice, 50 mg/kg, 5 h after the induction of inflammation; cited from earlier work.
Data set [5] can be described thus: Initial screening of bioavailability: 60 mL of guaco syrup orally. It is filed as in vivo, human. Particulars: 60 mL guaco syrup (17.6 mg COU, 1.1 mg OCA, 8.9 mg KAU), up to 600 min. The protocol: All the volunteers fasted for 8 h prior to the administration of guaco syrup and blood collection. […] The anticoagulant used was tetrasodium edetate. […] The pharmacokinetic analysis was performed using a non-compartmental model, considering an extravascular administration route and using WinNonlin Professional software, version 5.3. The relationships among the areas under the curves (r areas = AUC0-t/AUC0-inf), were used to confirm the suitability of the experimental design.

In data set [6] the target is cyclooxygenase-2. Set-up: method as in PMID 21211951. Particulars: LPS-induced RAW264.7 macrophages; cited from earlier work.
The subject of data set [7] is release of prostaglandin E2. On the set-up: method as in PMID 21211951. Particulars: LPS-induced RAW264.7 macrophages; cited from earlier work.
Data set [8] concerns synthesis of nitric oxide. Set-up: method as in PMID 21211951. The conditions noted are these: LPS-induced RAW264.7 macrophages; read-out: IC50, inhibition of the synthesis of nitric oxide; cited from earlier work.
Data set [9] concerns endothelium-intact or denuded rat aortic rings. Set-up: method as in PMID 15178370, PMID 11864765. The conditions noted are these: cited from earlier work.
On the set-up of data set [10]: method as in PMID 7150456. Particulars: cited from earlier work.
Setting [11] is: post-preparative, internal standard level.
Where [12] appears, read: post-preparative, internal standard level (500.0, 1000.0, 500.0 ng/mL).
Where [13] appears, read: 8 h at room temperature, internal standard level (6-methylcoumarin 500.0, Isoferulic acid 1000.0, Prednisone 500.0 ng/mL).
Where [14] appears, read: 8 h at room temperature, internal standard level, stored vs freshly prepared.
Where [15] appears, read: 30 days at 4 °C (stock solutions), internal standard level (500.0, 1000.0, 500.0 ng/mL).
Setting [16] is: 30 days at 4 °C, internal standard level.
[17] abbreviates: Short-term, internal standard level.
[18] abbreviates: Short-term, internal standard level (500.0, 1000.0, 500.0 ng/mL).

Molecules are shown by their SMILES. pIC50: −log10 of the molar value.

`Cc1ccc2oc(=O)ccc2c1` [6-methylcoumarin, reference compound]: the RE in data set [1] (setting [11]) is -6.38%; in data set [2] (setting [14]), -0.54%; in data set [2] (setting [16]), -3.89%; in [3] (setting [17]), 0.45%. For the same compound, the Mean recovery stood at 468.1 ± 22.6 ng/mL in [1] (setting [12]), 497.3 ± 3.8 ng/mL in data set [2] (setting [13]), 480.6 ± 46.6 ng/mL in data set [2] (setting [15]) and 501.1 ± 1.6 ng/mL in [3] (setting [18]).

`COc1ccc(/C=C/C(=O)O)cc1O` [Isoferulic acid, isoferulic acid, reference compound]: the RE in data set [1] (setting [11]) is given as -1.35%; in data set [2] (setting [14]), -5.00%; in [2] (setting [16]), 3.75%; in data set [3] (setting [17]), -0.07%. For the same compound, the Mean recovery stood at 986.5 ± 31.7 ng/mL in [1] (setting [12]), 950.0 ± 75.2 ng/mL in [2] (setting [13]), 1037.5 ± 68.1 ng/mL in [2] (setting [15]) and 999.3 ± 62.2 ng/mL in data set [3] (setting [18]).

As to `C=C1C[C@@]23CC[C@H]4[C@@](C)(CCC[C@@]4(C)C(=O)O)[C@@H]2CC[C@@H]1C3` [KAU, kaurenoic acid], in data set [4], the “reduction of the swelling” value is reported as 34.4%. In addition, the “plasma levels after guaco syrup without spiking” value in data set [5] is “did not provide sufficient levels”. Further, the Mean recovery was 509.8 ± 6.6 ng/mL in data set [1] (post-preparative: extracted samples 24 hours at 20°C, high level (1250.0, 750.0, 750.0, 500.0 ng/mL)); 9.8 ± 0.4 ng/mL in data set [1] (post-preparative: extracted samples 24 hours at 20°C, low level (50.0, 12.5, 25.0, 10.0 ng/mL)); 516.6 ± 5.1 ng/mL in data set [2] (8 h at room temperature, high level (Coumarin 1250.0, 7-hydroxycoumarin 750.0, o-coumaric acid 750.0, Kaurenoic acid 500.0 ng/mL)); 10.2 ± 0.7 ng/mL in [2] (8 h at room temperature, low level (Coumarin 50.0, 7-hydroxycoumarin 12.5, o-coumaric acid 25.0, Kaurenoic acid 10.0 ng/mL)); 487.8 ± 34.9 ng/mL in [2] (30 days at 4 °C (stock solutions), high level (1250.0, 750.0, 750.0, 500.0 ng/mL)); 9.75 ± 0.6 ng/mL in data set [2] (30 days at 4 °C (stock solutions), low level (50.0, 12.5, 25.0, 10.0 ng/mL)). Moreover, the Mean recovery was 463.2 ± 12.3 ng/mL in data set [3] (Long-term: plasma at -40°C, 60 days, high level (1250.0, 750.0, 750.0, 500.0 ng/mL)); 8.8 ± 0.3 ng/mL in [3] (Long-term: plasma at -40°C, 60 days, low level (50.0, 12.5, 25.0, 10.0 ng/mL)); 498.9 ± 7.6 ng/mL in data set [3] (Short-term: plasma at room temperature for 8 h, high level (1250.0, 750.0, 750.0, 500.0 ng/mL)); 10.0 ± 0.3 ng/mL in [3] (Short-term: plasma at room temperature for 8 h, low level (50.0, 12.5, 25.0, 10.0 ng/mL)); 502.5 ± 6.1 ng/mL in data set [3] (three freeze–thaw cycles, plasma, high level (1250.0, 750.0, 750.0, 500.0 ng/mL)); 9.9 ± 0.4 ng/mL in [3] (three freeze–thaw cycles, plasma, low level (50.0, 12.5, 25.0, 10.0 ng/mL)). The RE in data set [1] (post-preparative, high level) is on record as 1.96%; in [1] (post-preparative, low level), -1.70%; in data set [2] (8 h at room temperature, high level, stored vs freshly prepared), 3.33%; in data set [2] (8 h at room temperature, low level, stored vs freshly prepared) it was 8.94%; in [2] (30 days at 4 °C, high level), 3.33%; in [2] (30 days at 4 °C, low level) it was -2.46%. For the same compound, the RE was -7.36% in [3] (Long-term, high level); -11.70% in [3] (Long-term, low level); -0.22% in data set [3] (Short-term, high level); 0.23% in [3] (Short-term, low level); 0.49% in data set [3] (freeze–thaw cycles, high level); -0.41% in [3] (freeze–thaw cycles, low level). Besides, the “IC50, expression of cyclooxygenase-2 activity” value in data set [6] is 3.5 µg/mL. Also, the negative-log IC50 (pIC50) is 3.97 in data set [7] and 4.29 in [8]. In addition, in data set [9] (endothelium-intact or denuded rings), the “concentration promoting vasodilatory effects in rat aortas” value is “greater than 10 mM”. The “concentration with concentration-dependent activity on vascular smooth muscle” value in [9] (rat aortic rings pre-contracted with phenylephrine and potassium chloride) was not below 10 µM.

As to `C[C@]12C=CC(=O)C=C1CC[C@@H]1[C@@H]2C(=O)C[C@@]2(C)[C@H]1CC[C@]2(O)C(=O)CO` [Prednisone, prednisone, reference compound], the RE was -4.14% in data set [1] (setting [11]), -5.90% in data set [2] (setting [14]) and 0.43% in data set [3] (setting [17]). The Mean recovery in data set [1] (setting [12]) is 479.3 ± 16.9 ng/mL; in data set [2] (setting [13]), 470.5 ± 26.6 ng/mL; in data set [2] (setting [15]), 497.0 ± 13.9 ng/mL; in data set [3] (setting [18]), 502.2 ± 11.1 ng/mL.

For the compound `Cn1c(=O)c2[nH]cnc2n(C)c1=O` [theophylline], the clearance in data set [10] is 2.8 L/h.

In general, pIC50 refers to the IC50 on a negative log10 scale, so that one unit is a factor of ten. The clearance is the volume of plasma or blood freed of the substance per unit of time.

Source of the values: article PMC4355590, “A Kinetic Study of the Main Guaco Metabolites Using Syrup Formulation and the Identification of an Alternative Route of Coumarin Metabolism in Humans” (PLoS ONE, 2015).
